Data from ChEMBL document CHEMBL1142351, “Synthesis and characterization of 8-ethynyl-1,3-dihydro-benzo[b][1,4]diazepin-2-one derivatives: part 2. New potent non-competitive metabotropic glutamate receptor 2/3 antagonists” (Bioorg Med Chem Lett, 2008).
The source made the active and inactive calls. The calls are words filed in the database; no cut-off is given here.

Experiments:
[1] = target: T1, Metabotropic glutamate receptor 2 (Rattus norvegicus, UniProt P31421); test: Displacement of [3H]LY354740 from rat recombinant mGluR2 expressed in CHO cells; assay type: cell-based
[2] = target: T1, Metabotropic glutamate receptor 2; test: Antagonist activity at rat mGluR2 assessed as effect on (1S,3R)-ACPD-induced inhibition of forskolin-stimulated cAMP production; assay type: functional
[3] = target: T1, Metabotropic glutamate receptor 2; test: Displacement of [3H]LY354740 from rat mGluR2
[4] = target: Metabotropic glutamate receptor 2 (Rattus norvegicus) (UniProt P31421); test: Antagonist activity at rat mGluR2 transiently transfected in CHO cells expressing GIRKs assessed as inhibition of glutamate-induced reversible inward K+ current; assay type: functional, cell-based
[5] = target: Metabotropic glutamate receptor 3 (Rattus norvegicus) (UniProt P31422); test: Antagonist activity at rat mGluR3 transiently transfected in CHO cells expressing GIRKs assessed as inhibition of glutamate-induced reversible inward K+ current; assay type: functional, cell-based
[6] = target: Metabotropic glutamate receptor 8 (Rattus norvegicus, UniProt P70579); test: (§1) Displacement of [3H]-L-AP4 from rat mGluR8
[7] = Binding affinity to NMDA
[8] = Binding affinity to GABAA
[9] = target: Metabotropic glutamate receptor 8 (Rattus norvegicus) (UniProt P70579); test: as §1
[10] = species: Rattus norvegicus; test: Antagonist activity at mGluR group 2 in rat hippocampus assessed as reversal of LY-354740-mediated inhibition of fEPSPs in dentate gyrus; assay type: functional, tissue-based
[11] = species: Rattus norvegicus; test: Antagonist activity at mGluR group 2 in rat hippocampus assessed as blockade of LY-354740-mediated inhibition of fEPSPs after 3 hrs; assay type: functional, tissue-based

T1 sequence (P31421 whole entry): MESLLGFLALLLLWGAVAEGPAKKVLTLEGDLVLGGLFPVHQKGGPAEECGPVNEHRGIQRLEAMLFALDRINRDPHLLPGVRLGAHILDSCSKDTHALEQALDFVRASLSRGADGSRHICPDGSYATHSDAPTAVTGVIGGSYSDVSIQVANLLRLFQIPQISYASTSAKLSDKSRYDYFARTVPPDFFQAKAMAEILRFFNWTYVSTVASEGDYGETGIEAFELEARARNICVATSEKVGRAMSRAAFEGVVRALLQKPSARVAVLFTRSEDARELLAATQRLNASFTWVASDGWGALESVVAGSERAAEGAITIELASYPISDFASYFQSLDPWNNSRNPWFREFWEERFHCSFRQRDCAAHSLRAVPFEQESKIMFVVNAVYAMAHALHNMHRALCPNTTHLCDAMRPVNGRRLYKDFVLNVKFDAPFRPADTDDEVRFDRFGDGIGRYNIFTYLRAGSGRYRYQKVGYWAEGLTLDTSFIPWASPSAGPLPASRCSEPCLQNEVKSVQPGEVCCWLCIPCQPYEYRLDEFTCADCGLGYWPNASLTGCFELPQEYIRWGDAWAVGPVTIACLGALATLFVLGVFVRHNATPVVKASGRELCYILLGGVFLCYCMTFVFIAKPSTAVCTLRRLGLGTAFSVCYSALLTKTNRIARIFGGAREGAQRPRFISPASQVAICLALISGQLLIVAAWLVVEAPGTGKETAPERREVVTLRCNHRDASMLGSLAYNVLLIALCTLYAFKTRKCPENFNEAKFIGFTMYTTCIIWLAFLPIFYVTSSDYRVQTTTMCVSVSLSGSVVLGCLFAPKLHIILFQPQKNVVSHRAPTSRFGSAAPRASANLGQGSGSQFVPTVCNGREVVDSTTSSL
Chain of Metabotropic glutamate receptor 3 (Rattus norvegicus) (P31422 23-879 limits assumed): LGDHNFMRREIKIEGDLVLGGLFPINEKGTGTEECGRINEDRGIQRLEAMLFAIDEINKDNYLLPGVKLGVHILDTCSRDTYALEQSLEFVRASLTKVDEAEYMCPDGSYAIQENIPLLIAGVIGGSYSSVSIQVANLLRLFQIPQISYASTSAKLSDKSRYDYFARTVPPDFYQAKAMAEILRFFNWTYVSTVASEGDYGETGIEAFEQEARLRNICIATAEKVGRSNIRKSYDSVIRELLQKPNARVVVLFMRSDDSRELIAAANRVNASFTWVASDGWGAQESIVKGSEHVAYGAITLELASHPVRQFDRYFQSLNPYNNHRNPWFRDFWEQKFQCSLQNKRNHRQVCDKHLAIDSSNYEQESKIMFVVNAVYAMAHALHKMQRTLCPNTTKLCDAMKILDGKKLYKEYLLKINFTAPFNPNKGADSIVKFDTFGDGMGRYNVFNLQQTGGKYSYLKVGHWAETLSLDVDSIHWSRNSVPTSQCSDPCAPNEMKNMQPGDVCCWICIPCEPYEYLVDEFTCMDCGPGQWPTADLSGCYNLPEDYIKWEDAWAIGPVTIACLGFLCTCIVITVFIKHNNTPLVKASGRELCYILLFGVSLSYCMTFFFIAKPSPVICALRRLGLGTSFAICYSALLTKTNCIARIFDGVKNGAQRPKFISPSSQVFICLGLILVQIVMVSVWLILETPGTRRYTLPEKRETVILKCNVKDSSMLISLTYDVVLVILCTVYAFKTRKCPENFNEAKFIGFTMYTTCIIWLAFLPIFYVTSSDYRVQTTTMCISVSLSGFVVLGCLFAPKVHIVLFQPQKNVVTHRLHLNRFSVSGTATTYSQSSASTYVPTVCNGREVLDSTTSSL
Chain of Metabotropic glutamate receptor 2 (Rattus norvegicus) (P31421 19-872 limits assumed): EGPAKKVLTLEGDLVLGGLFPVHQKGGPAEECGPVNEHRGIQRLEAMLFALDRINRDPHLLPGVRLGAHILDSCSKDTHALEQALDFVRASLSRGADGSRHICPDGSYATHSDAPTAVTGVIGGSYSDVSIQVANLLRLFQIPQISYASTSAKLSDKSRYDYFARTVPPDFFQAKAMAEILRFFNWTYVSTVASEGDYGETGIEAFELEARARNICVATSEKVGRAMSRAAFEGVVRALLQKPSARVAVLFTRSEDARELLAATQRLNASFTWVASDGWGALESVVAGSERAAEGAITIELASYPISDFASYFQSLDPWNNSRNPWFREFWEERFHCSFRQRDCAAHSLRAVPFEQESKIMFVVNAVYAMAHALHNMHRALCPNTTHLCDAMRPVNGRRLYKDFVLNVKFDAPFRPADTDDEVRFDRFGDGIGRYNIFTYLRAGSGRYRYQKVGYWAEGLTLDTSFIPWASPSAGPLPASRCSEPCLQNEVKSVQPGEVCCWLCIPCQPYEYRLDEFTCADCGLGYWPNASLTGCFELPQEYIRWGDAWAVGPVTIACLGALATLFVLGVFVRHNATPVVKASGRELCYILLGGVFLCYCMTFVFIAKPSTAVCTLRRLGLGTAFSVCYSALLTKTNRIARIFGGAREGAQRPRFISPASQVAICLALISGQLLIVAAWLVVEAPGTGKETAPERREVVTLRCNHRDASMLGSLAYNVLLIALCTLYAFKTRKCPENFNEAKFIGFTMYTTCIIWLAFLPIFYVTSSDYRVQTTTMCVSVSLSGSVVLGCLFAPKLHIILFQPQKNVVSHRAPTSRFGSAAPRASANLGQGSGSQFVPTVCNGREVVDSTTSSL
Chain of Metabotropic glutamate receptor 8 (P70579 whole entry): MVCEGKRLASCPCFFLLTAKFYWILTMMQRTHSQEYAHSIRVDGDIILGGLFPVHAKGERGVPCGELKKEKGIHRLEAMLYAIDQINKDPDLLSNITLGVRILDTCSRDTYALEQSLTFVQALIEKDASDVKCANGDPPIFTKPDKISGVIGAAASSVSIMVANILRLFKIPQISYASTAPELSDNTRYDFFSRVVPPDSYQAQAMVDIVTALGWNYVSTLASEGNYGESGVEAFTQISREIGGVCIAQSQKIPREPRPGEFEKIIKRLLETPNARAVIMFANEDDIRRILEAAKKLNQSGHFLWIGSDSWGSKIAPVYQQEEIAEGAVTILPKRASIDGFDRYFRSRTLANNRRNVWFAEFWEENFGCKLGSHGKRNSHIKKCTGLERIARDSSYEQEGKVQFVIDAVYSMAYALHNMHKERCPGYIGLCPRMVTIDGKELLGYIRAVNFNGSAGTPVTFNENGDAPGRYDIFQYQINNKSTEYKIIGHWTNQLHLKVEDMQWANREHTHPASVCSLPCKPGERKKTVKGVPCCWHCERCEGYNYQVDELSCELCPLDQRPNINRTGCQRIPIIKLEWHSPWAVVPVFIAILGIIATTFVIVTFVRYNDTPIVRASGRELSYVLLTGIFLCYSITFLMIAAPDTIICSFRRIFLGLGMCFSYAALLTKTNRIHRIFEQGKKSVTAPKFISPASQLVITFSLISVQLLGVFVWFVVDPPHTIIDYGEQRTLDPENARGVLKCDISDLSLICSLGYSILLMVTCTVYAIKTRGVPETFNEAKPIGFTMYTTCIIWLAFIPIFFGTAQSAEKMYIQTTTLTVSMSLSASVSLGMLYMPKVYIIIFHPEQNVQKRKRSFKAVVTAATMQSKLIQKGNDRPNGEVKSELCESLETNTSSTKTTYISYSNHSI
Chain of Metabotropic glutamate receptor 8 (Rattus norvegicus) (P70579 whole entry): as above

COCCOc1cc2c(cc1C#Cc1ccccc1)NC(=O)CC(c1cccc(-n3ccnc3)c1)=N2
IC50 [1]: 23 nM
IC50 [2]: 15 nM

Cc1ccc2c(c1)NC(=O)CC(c1ccccc1)=N2
IC50 [3]: 6.4 µM

Cn1ccnc1-c1cccc(C2=Nc3ccc(C#Cc4ccccc4)cc3NC(=O)C2)c1
IC50 [1]: 730 nM

O=C1CC(c2cccc(-n3ccnn3)c2)=Nc2cc(O)c(C#Cc3ccc(F)cc3)cc2N1
IC50 [1]: 20 nM
IC50 [2]: 17 nM
Activity [4]: Active
Activity [5]: Active
IC50 [6]: 5 µM
Activity [7]: inactive
Activity [8]: inactive

N#Cc1cccc(C2=Nc3ccc(C#Cc4ccccc4)cc3NC(=O)C2)c1
IC50 [2]: 17 nM

O=C1CC(c2cccc(-n3cnnn3)c2)=Nc2ccc(C#Cc3ccc(F)cc3)cc2N1
IC50 [1]: 72 nM

CN(CCO)c1cc2c(cc1C#Cc1ccc(F)cc1)NC(=O)CC(c1cccc(-n3ccnc3)c1)=N2
IC50 [1]: 140 nM

O=C1CC(c2cccc(-n3ccnc3)c2)=Nc2ccc(C#Cc3ccccc3)cc2N1
IC50 [1]: 13 nM
IC50 [2]: 10 nM

O=C1CC(c2cccc(-n3nncc3CO)c2)=Nc2cc(O)c(C#Cc3ccc(F)cc3)cc2N1
IC50 [1]: 378 nM

N#CCOc1cc2c(cc1C#Cc1ccccc1)NC(=O)CC(c1cccc(-n3ccnc3)c1)=N2
IC50 [1]: 18 nM
IC50 [2]: 13 nM

Cc1cn(-c2cccc(C3=Nc4ccc(C#Cc5ccccc5)cc4NC(=O)C3)c2)c(C)n1
IC50 [1]: 170 nM

O=C1CC(c2cccc(-n3ccnn3)c2)=Nc2ccc(C#Cc3ccc(F)cc3)cc2N1
IC50 [1]: 6 nM
IC50 [2]: 12 nM

O=C1CC(c2cccc(-n3ccnc3)c2)=Nc2cc(O)c(C#Cc3ccc(F)cc3)cc2N1
IC50 [1]: 26 nM
IC50 [2]: 11 nM
Activity [4]: Active
Activity [5]: Active
Activity [9]: inactive
Activity [7]: inactive
Activity [8]: inactive
Activity [10]: Active
Activity [11]: Active

O=C1CC(c2cccc(-n3ccnc3)c2)=Nc2cc(OCCO)c(C#Cc3ccccc3)cc2N1
IC50 [1]: 64 nM

O=C1CC(c2cccc(-n3ccnc3)c2)=Nc2cc(OCCO)c(C#Cc3ccc(F)cc3)cc2N1
IC50 [1]: 46 nM

O=C1CC(c2cccc(-n3ccnc3)c2)=Nc2ccc(C#Cc3ccc(F)cc3)cc2N1
IC50 [1]: 9 nM
IC50 [2]: 9 nM

Cc1cn(-c2cccc(C3=Nc4ccc(C#Cc5ccc(F)cc5)cc4NC(=O)C3)c2)cn1
IC50 [1]: 98 nM

CN(C)c1cc2c(cc1C#Cc1ccccc1)NC(=O)CC(c1cccc(-n3ccnn3)c1)=N2
IC50 [1]: 36 nM

O=C1CC(c2cccc(-n3cncn3)c2)=Nc2ccc(C#Cc3ccc(F)cc3)cc2N1
IC50 [1]: 98 nM

O=C1CC(c2cccc(-n3ccnc3)c2)=Nc2ccc(C#Cc3ccccc3F)cc2N1
IC50 [1]: 20 nM
IC50 [2]: 16 nM
